Biological target: T1, hSTING (Homo sapiens, UniProt Q86WV6, G230A/H232R/R293Q/R71H)
T1 construct: host or cells: THP1-Dual KO-IFNAR2 cells
Assay: STING reporter assay (luciferase) in THP1-Dual KO-IFNAR2 cells stimulated with 2'3'cGAMP
Format: cell-based
Conditions: 2'3'cGAMP 15 μM, 24 h, luciferase reporter activity
Method: STING pathway activation by the compounds described herein is measured using THP1-Dual™ cells (KO-IFNAR2).
THP1-Dual™ KO-IFNAR2 Cells (obtained from invivogen) are maintained in RPMI, 10% FCS, 5 ml P/S, 2 mM L-glut, 10 mM Hepes, and 1 mM sodium pyruvate.
Compounds are spotted in empty 384 well tissue culture plates (Greiner 781182) by Echo for a final concentration of 0.0017-100 μM. Cells are plated into the TC plates at 40 μL per well, 2×10E6 cells/mL. For activation with STING ligand, 2′3′cGAMP (MW 718.38, obtained from Invivogen), is prepared in Optimem media.
The following solutions are prepared for each 1×384 plate: • Solution A: 2 mL Optimem with one of the following stimuli: • 60 uL of 10 mM 2′3′cGAMP->150 μM stock • Solution B: 2 mL Optimem with 60 μL Lipofectamine 2000->Incubate 5 min at RT
2 mL of solution A and 2 ml Solution B is mixed and incubated for 20 min at room temperature (RT). 20 uL of transfection solution (A+B) is added on top of the plated cells, with a final 2′3′cGAMP concentration of 15 μM. The plates are then centrifuged immediately at 340 g for 1 minute, after which they are incubated at 37° C., 5% CO2, >98% humidity for 24 h. Luciferase reporter activity is then measured. EC50 values are calculated by using standard methods known in the art.
Luciferase reporter assay: 10 μL of supernatant from the assay is transferred to white 384-plate with flat bottom and squared wells. One pouch of QUANTI-Luc™ Plus us dissolved in 25 mL of water. 100 μL of QLC Stabilizer per 25 mL of QUANTI-Luc™ Plus solution is added. 50 μL of QUANTI-Luc™ Plus/QLC solution per well is then added. Luminescence is measured on a Platereader (e.g., Spectramax I3X (Molecular Devices GF3637001)).
Luciferase reporter activity is then measured. EC50 values are calculated by using standard methods known in the art.

T1 sequence (Q86WV6 whole entry R71H/G230A/H232R/R293Q): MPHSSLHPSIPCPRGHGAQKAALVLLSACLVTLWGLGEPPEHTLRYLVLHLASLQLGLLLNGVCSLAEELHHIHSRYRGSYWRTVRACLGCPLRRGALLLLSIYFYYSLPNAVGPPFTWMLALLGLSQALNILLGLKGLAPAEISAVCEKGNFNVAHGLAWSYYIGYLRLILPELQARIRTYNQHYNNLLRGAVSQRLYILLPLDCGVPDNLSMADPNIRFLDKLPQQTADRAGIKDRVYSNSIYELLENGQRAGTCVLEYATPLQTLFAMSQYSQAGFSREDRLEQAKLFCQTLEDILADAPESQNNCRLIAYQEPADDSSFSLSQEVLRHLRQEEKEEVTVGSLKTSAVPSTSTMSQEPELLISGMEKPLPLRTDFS

EC50 [nM] | SMILES
40 to 200 | O=C(Nc1cnc(N2CC3(C2)CC(F)(F)C3)c(Cl)c1)Nc1c[nH]c2ccc(Cl)cc12 [Compound 138, 1-(5-chloro-1H-indol-3-yl)-3-(5-chloro-6-(6,6-difluoro-2-azaspiro[3.3]heptan-2-yl)pyridin-3-yl)urea]
40 to 200 | O=C(Nc1ccc(C2CC(F)(F)C2)c(F)c1)Nc1c[nH]c2ccc(Cl)cc12 [Compound 139, 1-(5-chloro-1H-indol-3-yl)-3-(4-(3,3-difluorocyclobutyl)-3-fluorophenyl)urea]
1000 to 5000 | O=C(Nc1cnc(C2CCC(F)(F)CC2)c(Cl)c1)Nc1c[nH]c2cc(Cl)ccc12 [Compound 140, 1-(6-chloro-1H-indol-3-yl)-3-(5-chloro-6-(4,4-difluorocyclohexyl)pyridin-3-yl)urea]
200 to 1000 | O=C(Nc1cnc(C2CCC(F)(F)CC2)c(Cl)c1)Nc1c[nH]c2cc(F)ccc12 [Compound 141, 1-(5-chloro-6-(4,4-difluorocyclohexyl)pyridin-3-yl)-3-(6-fluoro-1H-indol-3-yl)urea]
40 to 200 | C[C@@H]1CN(c2ncc(NC(=O)Nc3c[nH]c4cc(F)c(F)cc34)cc2Cl)C[C@@H](C)O1 [Compound 142, 1-(5-chloro-6-((2R,6R)-2,6-dimethylmorpholino)pyridin-3-yl)-3-(5,6-difluoro-1H-indol-3-yl)urea]
200 to 1000 | O=C(Nc1cnc(N2CCC(F)(F)CC2)c(CCO)c1)Nc1c[nH]c2cc(F)c(F)cc12 [Compound 143, 1-(5,6-difluoro-1H-indol-3-yl)-3-(6-(4,4-difluoropiperidin-1-yl)-5-(2-hydroxyethyl)pyridin-3-yl)urea]
40 to 200 | O=C(Nc1cnc(C2CC(F)(F)C2)c(Cl)c1)Nc1c[nH]c2ccc(Cl)cc12 [Compound 144, 1-(5-chloro-1H-indol-3-yl)-3-(5-chloro-6-(3,3-difluorocyclobutyl)pyridin-3-yl)urea]
200 to 1000 | O=C(Nc1cnc(N2CCC3(CCCCO3)CC2)c(F)c1)Nc1c[nH]c2cc(F)ccc12 [Compound 145, 1-(6-fluoro-1H-indol-3-yl)-3-(5-fluoro-6-(1-oxa-9-azaspiro[5.5]undecan-9-yl)pyridin-3-yl)urea]
40 to 200 | C[C@@H]1CN(c2ncc(NC(=O)Nc3c[nH]c4cc(F)c(F)cc34)cc2Cl)C[C@H](C)O1 [Compound 146, 1-(5-chloro-6-((2R,6S)-2,6-dimethylmorpholino)pyridin-3-yl)-3-(5,6-difluoro-1H-indol-3-yl)urea]
40 to 200 | C[C@H]1CN(c2ncc(NC(=O)Nc3c[nH]c4cc(F)c(F)cc34)cc2Cl)C[C@H](C)O1 [Compound 147, 1-(5-chloro-6-((2S,6S)-2,6-dimethylmorpholino)pyridin-3-yl)-3-(5,6-difluoro-1H-indol-3-yl)urea]
40 to 200 | CO[C@H]1CCCN(c2ncc(NC(=O)Nc3c[nH]c4cc(F)c(F)cc34)cc2Cl)C1 [Compound 148, (S)-1-(5-chloro-6-(3-methoxypiperidin-1-yl)pyridin-3-yl)-3-(5,6-difluoro-1H-indol-3-yl)urea]
200 to 1000 | CO[C@@H]1CCCN(c2ncc(NC(=O)Nc3c[nH]c4cc(F)c(F)cc34)cc2Cl)C1 [Compound 149, (R)-1-(5-chloro-6-(3-methoxypiperidin-1-yl)pyridin-3-yl)-3-(5,6-difluoro-1H-indol-3-yl)urea]
200 to 1000 | COCCO[C@H]1CCN(c2ncc(NC(=O)Nc3c[nH]c4cc(F)c(F)cc34)cc2Cl)C1 [Compound 150, (S)-1-(5-chloro-6-(3-(2-methoxyethoxy)pyrrolidin-1-yl)pyridin-3-yl)-3-(5,6-difluoro-1H-indol-3-yl)urea]
200 to 1000 | Cc1cc(NC(=O)Nc2c[nH]c3cc(F)c(F)cc23)cnc1N1CCO[C@@H](C)C1 [Compound 151, (S)-1-(5,6-difluoro-1H-indol-3-yl)-3-(5-methyl-6-(2-methylmorpholino)pyridin-3-yl)urea]
1000 to 5000 | COCCO[C@@H]1CCN(c2ncc(NC(=O)Nc3c[nH]c4cc(F)c(F)cc34)cc2C)C1 [Compound 152, (R)-1-(5,6-difluoro-1H-indol-3-yl)-3-(6-(3-(2-methoxyethoxy)pyrrolidin-1-yl)-5-methylpyridin-3-yl)urea]
40 to 200 | CC1(C)CN(c2ncc(NC(=O)Nc3c[nH]c4cc(F)c(F)cc34)cc2Cl)CCO1 [Compound 153, 1-(5-chloro-6-(2,2-dimethylmorpholino)pyridin-3-yl)-3-(5,6-difluoro-1H-indol-3-yl)urea]
40 to 200 | O=C(Nc1cc(Cl)c(C2CCC(F)(F)CC2)cn1)Nc1c[nH]c2cc(F)c(F)cc12 [Compound 154, 1-(4-chloro-5-(4,4-difluorocyclohexyl)pyridin-2-yl)-3-(5,6-difluoro-1H-indol-3-yl)urea]

The remaining lines, values behind:

SMILES | EC50 [nM]
COCCN1CCN(c2ncc(NC(=O)Nc3c[nH]c4cc(F)c(F)cc34)cc2C)CC1 [Compound 123, 1-(5,6-difluoro-1H-indol-3-yl)-3-(6-(4-(2-methoxyethyl)piperazin-1-yl)-5-methylpyridin-3-yl)urea] | 5000 to 100000
O=C(Nc1cnc(N2CCN(CCC(F)(F)F)CC2)c(Cl)c1)Nc1c[nH]c2ccc(Cl)cc12 [Compound 124, 1-(5-chloro-1H-indol-3-yl)-3-(5-chloro-6-(4-(3,3,3-trifluoropropyl)piperazin-1-yl)pyridin-3-yl)urea] | 40 to 200
N#Cc1cc(NC(=O)Nc2c[nH]c3cc(F)c(F)cc23)cnc1C1CC(F)(F)C1 [Compound 125, 1-(5-cyano-6-(3,3-difluorocyclobutyl)pyridin-3-yl)-3-(5,6-difluoro-1H-indol-3-yl)urea] | 200 to 1000
O=C(Nc1cnc(N2CCN(CC(F)(F)F)CC2)c(Cl)c1)Nc1c[nH]c2ccc(Cl)cc12 [Compound 126, 1-(5-chloro-1H-indol-3-yl)-3-(5-chloro-6-(4-(2,2,2-trifluoroethyl)piperazin-1-yl)pyridin-3-yl)urea] | 40 to 200
O=C(Nc1cnc(N2CCC(F)(F)CC2)c(CCO)c1)Nc1c[nH]c2ccc(Cl)cc12 [Compound 127, 1-(5-chloro-1H-indol-3-yl)-3-(6-(4,4-difluoropiperidin-1-yl)-5-(2-hydroxyethyl)pyridin-3-yl)urea] | 200 to 1000
O=C(Nc1ccc(N2CCC(F)(F)CC2)nc1)Nc1c[nH]c2cc(Cl)c(Cl)cc12 [Compound 128, 1-(5,6-dichloro-1H-indol-3-yl)-3-(6-(4,4-difluoropiperidin-1-yl)pyridin-3-yl)urea] | 1000 to 5000
Cc1cc(NC(=O)Nc2c[nH]c3ccc(Cl)cc23)cnc1N1CC2(C1)CC(F)(F)C2 [Compound 129, 1-(5-chloro-1H-indol-3-yl)-3-(6-(6,6-difluoro-2-azaspiro[3.3]heptan-2-yl)-5-methylpyridin-3-yl)urea] | 40 to 200
O=C(Nc1ccc(C2CCC(F)(F)CC2)nc1)Nc1c[nH]c2ccc(Cl)cc12 [Compound 130, 1-(5-chloro-1H-indol-3-yl)-3-(6-(4,4-difluorocyclohexyl)pyridin-3-yl)urea] | 40 to 200
CCc1cc(NC(=O)Nc2c[nH]c3ccc(Cl)cc23)cnc1N1CCC(F)(F)CC1 [Compound 131, 1-(5-chloro-1H-indol-3-yl)-3-(6-(4,4-difluoropiperidin-1-yl)-5-ethylpyridin-3-yl)urea] | 40 to 200
CCc1cc(NC(=O)Nc2c[nH]c3ccc(F)cc23)cnc1N1CCC(F)(F)CC1 [Compound 132, 1-(6-(4,4-difluoropiperidin-1-yl)-5-ethylpyridin-3-yl)-3-(5-fluoro-1H-indol-3-yl)urea] | 40 to 200
Cc1cc(NC(=O)Nc2c[nH]c3ccc(Cl)cc23)cnc1C1CCN(CC(F)(F)F)CC1 [Compound 133, 1-(5-chloro-1H-indol-3-yl)-3-(5-methyl-6-(1-(2,2,2-trifluoroethyl)piperidin-4-yl)pyridin-3-yl)urea] | 40 to 200
COCCN1CCN(c2ncc(NC(=O)Nc3c[nH]c4cc(F)c(F)cc34)cc2Cl)CC1 [Compound 134, 1-(5-chloro-6-(4-(2-methoxyethyl)piperazin-1-yl)pyridin-3-yl)-3-(5,6-difluoro-1H-indol-3-yl)urea] | 1000 to 5000
COCCN1CCN(c2ncc(NC(=O)Nc3c[nH]c4ccc(Cl)cc34)cc2Cl)CC1 [Compound 135, 1-(5-chloro-1H-indol-3-yl)-3-(5-chloro-6-(4-(2-methoxyethyl)piperazin-1-yl)pyridin-3-yl)urea] | 200 to 1000
O=C(Nc1cnc(C2CCC(F)(F)CC2)c(CO)c1)Nc1c[nH]c2ccc(Cl)cc12 [Compound 136, 1-(5-chloro-1H-indol-3-yl)-3-(6-(4,4-difluorocyclohexyl)-5-(hydroxymethyl)pyridin-3-yl)urea] | 200 to 1000
O=C(Nc1cnc(N2CC3(C2)CC(F)(F)C3)c(F)c1)Nc1c[nH]c2ccc(Cl)cc12 [Compound 137, 1-(5-chloro-1H-indol-3-yl)-3-(6-(6,6-difluoro-2-azaspiro[3.3]heptan-2-yl)-5-fluoropyridin-3-yl)urea] | 40 to 200
